Experimental data reported in patent US20010031469A1, “Methods for the detection of modified peptides, proteins and other molecules” (priority 2000, published 2001).

tested on: HEK293 cell lysates after 5 minutes serum stimulation; assay: Tagged substrates array: in vitro protein kinase reaction of the tagged peptide mix with cell lysate, sorted on tag array, anti-pTyr immunostaining; assay type: biochemical; conditions: Hundred micrograms of total cell lysate, 30 minutes at 37 degree Celsius; anti-pTyr monoclonal antibody mix, Cy5 secondary, GenePix scanner
Method: EDC/NHS combined cross-linking was performed to tag the peptide or substrate which needs to be sorted. Coupling buffer contains no Tris and no phosphate. Peptides and oligonucleotides in equimolar ratios [50 μg/ml in 10 mM sodium acetate buffer (pH 5.0)] were reacted with a 1:1 mixture of N-hydroxysuccinimide NHS and 1 -ethyl-3 -(3 -dimethylaminopropyl) carbodiimide EDC for 2 hours. The excess active groups were then blocked with 1 M ethanolamine (pH 8.5).
Peptides. Phosphotyrosine-containing and non-phosphorylated peptides were synthesized, HPLC purified and checked by mass spectroscopy. Peptides were stored under nitrogen at -80 degree. Celsius. The synthesized peptides were as following, phosphotyrosine, AEPDpYGALYE PLCgamma, SAAPpYLKTK Stat3-705, DDPSpYVNVQ SHC-317, PDHQpYYNDF SHC-239, TDDGpYMPMS IRS 1-608, GNGDpYMPMS IRS 1-628, SPGEpYVNIE IRS 1-895, KSLNpYIDLD IRS 1-1172, DLSTpYASIN IRS1-1222; non-phosphorylated, AEPDYGALYE, SAAPYLKTK, DDPSYVNVQ and PDHQYYNDF SHC, KDGATMKTF Akt, RGRSRSAPPN BAD, GEGTYGVVYK p34cdc2, GAGTPAATDEK, DGFVLTRLLE beta spectrin, NSIMKCDIDI Gamma actin, PGIADRMQKE beta actin.
Amino modified oligonucleotides used as tags. The amino modifications can be used either for slides coupling or for peptide coupling, or for coupling to any reactive substrates which needs to be sorted onto the array. Oligonucleotides are chosen with similar Tm and hybridization properties. Oligonucleotides can be substituted by any pair of complementary nucleic acids or PNAs without affecting the sensitivity or completeness of the assay. The length and sequence of the nucleic acids or PNAs is also not important as long as strands complementarity results in hibridization specificity. Here it is described a test experiment with 18 pairs of oligonucleotides. […]
Slide Overlay. […] After triple washing in TBST, and then TBS, fluorescent complexes are detected by using a GenePix microarrays scanner. […]

Row | Sequence | phosphorylation of sorted tagged substrate (FIG. 10)
1 | PDHQYYNDF [Substrate S4] | strongly phosphorylated
2 | SAAPYLKTK [Substrate S2] | moderately well phosphorylated
3 | AEPDYGALYE [Substrate S1] | moderately well phosphorylated
